In patent US8388990B2, “Acidified chlorite compositions containing nitrogenous stabilizers and systems and methods related thereto” (Ecolab USA Inc., priority 2002, dated 2013):
Like-named read-outs stand apart in the source and are kept apart here.

Key:
[1] = Assay for measuring the Reduced Chlorite Demand Factor (Example 9); format: physicochemical; conditions: pH 2.5
[2] = buffer, pH 2.5
[3] = Chlorine dioxide generation by UV/Visible spectrophotometry at 360 nm (Example 6); format: physicochemical; conditions: pH 2.5, no colorant
[4] = for Percent of Initial NaClO2 Remaining 2 Hours after Mixing / Percent of Initial NaClO2 Remaining 5 Hours after Mixing: buffer
[5] = Effect of nitrogenous stabilizer on chlorite consumption in a nil colorant composition (Example 7); format: physicochemical
[6] = Colorant effect on chlorite consumption (Example 2); format: physicochemical; conditions: disinfecting composition A of Example 1 with essentially equimolar colorant: 0.41% Blue #1, 0.26% Blue #2, 0.30% Yellow #5, 0.25% Yellow #6, 0.28% Red #40
Method: To determine how increasing levels of colorant causes a more rapid consumption of chlorite, the disinfecting composition A of Example 1 was prepared with either 0% (control), 0.03%, 0.15%, 0.30% or 0.60% by weight FD&C Yellow #5.
This experiment was then repeated using essentially equimolar concentrations of the following FD&C colorants: 0.41% Blue #1, 0.26% Blue #2, 0.30% Yellow #5, 0.25% Yellow #6, 0.28% Red #40 and no colorant (control).

[7] = stabilizer at 1.33 M, five hours after mixing, versus control without stabilizer
[8] = level (Wt %): ethylenediamine 1.0, monoethanolamine 2.0, glycine 2.5
[9] = composition with FD&C Yellow #5, pH 2.5, versus control

For `NCCN` [Ethylenediamine], the “Reduced Chlorite Demand Factor” value [1, 7] was 4.0, the “Percent of Initial Colorant Remaining 2 Hours after Mixing” value [2] was 91% and the “Level of ClO2 after 1 hour” value [3, 8] was 35 ppm. For the same compound, the “Percent of Initial NaClO2 Remaining 2 Hours after Mixing” value ([4]; pH 2.5) was 92% and the “Percent of Initial NaClO2 Remaining 5 Hours after Mixing” value ([4]; pH 2.5) was 80%.

For `NS(=O)(=O)O` [Sulfamic Acid], the “Reduced Chlorite Demand Factor” value [1] was 4.5, the “Percent of Initial Colorant Remaining 2 Hours after Mixing” value [2] was 97% and the “Level of ClO2 after 1 hour” value ([3]; stabilizer level 0.25 Wt %) was 17 ppm. For the same compound, the “Level of ClO2 after 1 hour” value ([3]; stabilizer level 0.50 Wt %) was 17 ppm, the “Percent of Initial NaClO2 After 2 Hours” value ([5]; stabilizer level 0.25 Wt %) was 97% and the “Percent of Initial NaClO2 After 5 hours” value ([5]; stabilizer level 0.25 Wt %) was 94%. The “Percent of Initial NaClO2 After 2 Hours” value ([5]; stabilizer level 0.50 Wt %) was 97%, the “Percent of Initial NaClO2 After 5 hours” value ([5]; stabilizer level 0.50 Wt %) was 94% and the “Percent of Initial NaClO2 Remaining 2 Hours after Mixing” value ([4]; pH 2.5) was 98%. The “Percent of Initial NaClO2 Remaining 5 Hours after Mixing” value ([4]; pH 2.5) was 95% and the “effect on rate of sodium chlorite consumption / chlorite longevity (in words)” value ([4]; pH 2.5) was “significantly impact the rate of sodium chlorite consumption”.

With `NCCO` [Monoethanolamine] the “Reduced Chlorite Demand Factor” value [1, 7] was 4.1, the “Percent of Initial Colorant Remaining 2 Hours after Mixing” value [2] was 49% and the “Level of ClO2 after 1 hour” value [3, 8] was 66 ppm. For the same compound, the “Percent of Initial NaClO2 Remaining 2 Hours after Mixing” value ([4]; pH 2.5) was 86% and the “Percent of Initial NaClO2 Remaining 5 Hours after Mixing” value ([4]; pH 2.5) was 45%.

With `CNS(=O)(=O)O` [Methylsulfamic Acid] the “effect on rate of sodium chlorite consumption / chlorite longevity (in words)” value [4, 9] was “particularly effective”.

For `NCCS(=O)(=O)O` [Taurine], the “effect on rate of sodium chlorite consumption / chlorite longevity (in words)” value [4, 9] was “solid chlorite longevity benefits”.

In the case of `COc1cc(S(=O)(=O)[O-])c(C)cc1N=Nc1c(O)ccc2cc(S(=O)(=O)[O-])ccc12.[Na+].[Na+]` [FD&C Red #40], the “Percent of Initial NaClO2 Remaining 5 Hours after Mixing” value [6] is reported as 60%.

In the case of `O=C1/C(=C2\Nc3ccc(S(=O)(=O)[O-])cc3C2=O)Nc2ccc(S(=O)(=O)[O-])cc21.[Na+].[Na+]` [FD&C Blue #2], the “Percent of Initial NaClO2 Remaining 5 Hours after Mixing” value [6] is reported as 43%.

In the case of `NC(N)=O` [Urea], the “Reduced Chlorite Demand Factor” value [1, 7] is reported as 4.3 and the “effect on rate of sodium chlorite consumption / chlorite longevity (in words)” value [4, 9] is reported as “provides longevity benefits”.

In the case of Aniline Sulfonic Acid, the “Percent of Initial NaClO2 After 2 Hours” value ([4]; pH 2.5) is reported as 90%, the “Percent of Initial NaClO2 After 5 hours” value ([4]; pH 2.5) is reported as 75% and the “effect on rate of sodium chlorite consumption / chlorite longevity (in words)” value ([4]; pH 2.5) is reported as “promote greater chlorite longevity”.

With `Nc1ccc(S(N)(=O)=O)cc1` [Sulfanilamide] the “Reduced Chlorite Demand Factor” value ([1]; tested at 0.5% due to lower solubility, five hours after mixing) was 5.6 and the “effect on rate of sodium chlorite consumption / chlorite longevity (in words)” value [4, 9] was “promote greater chlorite longevity”.

In the case of `NCS(=O)(=O)O` [Aminomethanesulfonic Acid], the “effect on rate of sodium chlorite consumption / chlorite longevity (in words)” value [4, 9] is reported as “solid chlorite longevity benefits”.

For `O=S(=O)([O-])c1ccc(N=Nc2c(O)ccc3cc(S(=O)(=O)[O-])ccc23)cc1.[Na+].[Na+]` [FD&C Yellow #6], the “Percent of Initial NaClO2 Remaining 5 Hours after Mixing” value [6] was 18%.

For `CCN(Cc1cccc(S(=O)(=O)[O-])c1)c1ccc(C(=C2C=CC(=[N+](CC)Cc3cccc(S(=O)(=O)[O-])c3)C=C2)c2ccccc2S(=O)(=O)[O-])cc1.[Na+].[Na+]` [FD&C Blue #1], the “Percent of Initial NaClO2 Remaining 5 Hours after Mixing” value [6] was less than 2%.

With `OCCNCCO` [Diethanolamine] the “Reduced Chlorite Demand Factor” value [1, 7] was 0.9.

In the case of `NCC(=O)O` [Glycine], the “Reduced Chlorite Demand Factor” value [1, 7] is reported as 3.8, the “Percent of Initial Colorant Remaining 2 Hours after Mixing” value [2] is reported as 61% and the “Level of ClO2 after 1 hour” value [3, 8] is reported as 105 ppm. For the same compound, the “Percent of Initial NaClO2 Remaining 2 Hours after Mixing” value ([4]; pH 2.5) was 78% and the “Percent of Initial NaClO2 Remaining 5 Hours after Mixing” value ([4]; pH 2.5) was 42%.

For `Nc1ccccc1` [Aniline], the “effect on rate of sodium chlorite consumption / chlorite longevity (in words)” value [4, 9] was “promote greater chlorite longevity”.

With `O=C([O-])C1=NN(c2ccc(S(=O)(=O)[O-])cc2)C(=O)C1N=Nc1ccc(S(=O)(=O)[O-])cc1.[Na+].[Na+].[Na+]` (stereo not shown) [FD&C Yellow #5] the “Percent of Initial NaClO2 Remaining 5 Hours after Mixing” value [6] was 27%.
